Read-outs that look alike come from different tables or passages of the source.

The source of these data is article PMC6591397, “Functional Roles of Metabolic Intermediates in Regulating the Human Mitochondrial NAD(P)^+-Dependent Malic Enzyme” (Scientific Reports, 2019).

For series [1], the target named is human m-NAD(P)-ME WT and the exosite mutants. As to the kind of experiment: Size distribution analysis by analytical ultracentrifugation of WT and exosite mutants, protein only, with NAD+ or with ATP. Format: binding. As to conditions: PBS. Here is the method: Size distribution of the monomer-dimer-tetramer equilibrium of the enzyme was monitored using a Beckman Optima XL-A analytical ultracentrifuge instrument. A protein sample (380 µl) and reference buffer (400 µl) were loaded into a well-assembled cell with a double-sector centerpiece. Experiments were performed with an An-50Ti rotor at 42,000 rpm and 20 °C for 3 to 4 hours. The scans for sedimentation velocity data were monitored by the UV absorbance at 280 nm with a 480 s interval time and a 0.002 cm step size in continuous distribution mode. Using the SEDFIT 9.4c software[31]–[34], the size distribution of the enzyme was analyzed with a resolution corresponding to N = 200 to cover the range of sedimentation coefficient (S) values from approximately 0.1 to 20, a confidence level of p = 0.95, and a best-fit average anhydrous frictional ratio (f/f0). The dissociation constants of monomer-dimer-tetramer self-association model were globally analyzed by using the SEDPHAT software.
All sedimentation velocity data were globally fitted by a monomer-dimer-tetramer equilibrium model by the software program of SEDPHAT[34]. The parameters protein partial specific volume, solvent density and viscosity were calculated with the […] software program.
Figure 4 Continuous sedimentation coefficient distribution of human m-NAD(P)-ME WT and the exosite mutants. The enzyme concentrations were fixed at 1.6, 4.7, and 14.2 μM in PBS. […] (a) ME2_WT; (b) ME2_H154V; (c) ME2_K156A; (d) ME2_G192A; (e) ME2_R194N; (f) ME2_R197E; (g) ME2_R197D.
Figure 5 Continuous sedimentation coefficient distribution of human m-NAD(P)-ME WT and the exosite mutants. The enzyme concentrations were fixed at 1.6, 4.7, and 14.2 μM in PBS. […] (a) ME2_N482G; (b) ME2_N482A; (c) ME2_R542V; (d) ME2_Y552F; (e) ME2_R556Q; (f) ME2_R556V.

Series [2] relates to human m-NAD(P)-ME WT and exosite mutants. Put plainly: Enzyme kinetic assay (NADH production, absorbance at 340 nm) of WT and exosite mutants. Format: biochemical. The settings on record: for K0.5,malate / Km / kcat: pH 7.4. The procedure:
The ME reaction was measured with the production rate of NADH or NADPH via the absorbance at 340 nm. The reaction mixture in a saturated condition included 1 mM NAD(P)^+, 40 mM malate, and 10 mM MgCl2 in 50 mM Tris-HCl (pH 7.4). To determine the Km and kcat values, the concentration of one substrate was varied around its Km values while the concentrations of the other components were fixed at saturated concentrations.
The cooperativity of malate was determined with the following equation: ν=Vmax×[Malate]^h/K0.5h+[Malate]^h where ν is the initial velocity, Vmax is the maximum rate of the reaction, K0.5 is the substrate concentration at half-maximal velocity, and h is the Hill coefficient, which represents the degree of cooperativity.

[3] abbreviates: protein only, read-out: Kd,12 monomer-dimer dissociation constant.
Where [4] appears, read: protein only, read-out: Kd,24 dimer-tetramer dissociation constant.
The mark [5] stands for this setting: read-out: Kd,12(ATP), with 0.5 mM ATP.
[6] abbreviates: read-out: Kd,24(ATP), with 0.5 mM ATP.
The mark [7] stands for this setting: with 0.4 mM NAD+, read-out: Kd,12(NAD).
Where [8] appears, read: with 0.4 mM NAD+, read-out: Kd,24(NAD).

On to “G192A: exosite mutant of human m-NAD(P)-ME”, for which the Kd in series [1] (setting [3]) was 90 ± 2 nM; in series [1] (setting [4]), 300 ± 1 nM; in series [1] (setting [5]) it was 210 ± 10 nM; in series [1] (setting [6]), 400 ± 10 nM; in series [1] (setting [7]), 60 ± 2 nM; in series [1] (setting [8]), 180 ± 10 nM. Moreover, the figures for the “h (Hill coefficient, malate cooperativity)” value in series [2] ((+) with 5 mM fumarate) and in series [2] ((−) without fumarate) were 1.19 ± 0.10 and 1.30 ± 0.19, respectively. The entries for the “K0.5,malate” value in series [2] ((+) with 5 mM fumarate) and in series [2] ((−) without fumarate) were 2.65 ± 0.18 mM and 11.18 ± 2.08 mM, respectively. Further, the Km in series [2] ((+) with 5 mM fumarate) is 320 ± 30 µM; in series [2] ((−) without fumarate), 570 ± 70 µM. For the same substance, the kcat in series [2] ((+) with 5 mM fumarate) was 230.0 ± 4.4 s⁻¹; in series [2] ((−) without fumarate) it was 210.6 ± 7.7 s⁻¹.

In the case of “H154V: exosite mutant of human m-NAD(P)-ME”, the Kd is 30 ± 2 nM in series [1] (setting [3]); 460 ± 3 nM in series [1] (setting [4]); 460 ± 10 nM in series [1] (setting [5]); 4030 ± 40 nM in series [1] (setting [6]); 70 ± 1 nM in series [1] (setting [7]); 160 ± 1 nM in series [1] (setting [8]). For the same substance, the “kcat compared with the WT value” in series [2] was “reduced to half of the WT value”. Also, the “h (Hill coefficient, malate cooperativity)” value in series [2] ((+) with 5 mM fumarate) amounted to 1.08 ± 0.05; in series [2] ((−) without fumarate), 1.99 ± 0.10. In addition, the “K0.5,malate” value in series [2] ((+) with 5 mM fumarate) stood at 4.94 ± 0.26 mM; in series [2] ((−) without fumarate), 15.31 ± 0.51 mM. Moreover, the figures for the Km in series [2] ((+) with 5 mM fumarate) and in series [2] ((−) without fumarate) were 530 ± 40 µM and 970 ± 60 µM, respectively. Further, the values for the kcat in series [2] ((+) with 5 mM fumarate) and in series [2] ((−) without fumarate) were 140.5 ± 2.5 s⁻¹ and 134.6 ± 2.9 s⁻¹, respectively.

For the substance “K156A: exosite mutant of human m-NAD(P)-ME”, the Kd in series [1] (setting [3]) stood at 120 ± 4 nM; in series [1] (setting [4]), 320 ± 10 nM; in series [1] (setting [5]), 320 ± 10 nM; in series [1] (setting [6]), 800 ± 20 nM; in series [1] (setting [7]) it was 1360 ± 50 nM; in series [1] (setting [8]), 80 ± 3 nM. Also, the “h (Hill coefficient, malate cooperativity)” value in series [2] ((+) with 5 mM fumarate) worked out at 1.01 ± 0.10; in series [2] ((−) without fumarate) it was 1.65 ± 0.04. Moreover, the entries for the “K0.5,malate” value in series [2] ((+) with 5 mM fumarate) and in series [2] ((−) without fumarate) were 3.56 ± 0.40 mM and 10.12 ± 0.21 mM, respectively. The results for the Km in series [2] ((+) with 5 mM fumarate) and in series [2] ((−) without fumarate) were 320 ± 30 µM and 650 ± 70 µM, respectively. Also, the figures for the kcat in series [2] ((+) with 5 mM fumarate) and in series [2] ((−) without fumarate) were 223.6 ± 5.1 s⁻¹ and 209.9 ± 6.2 s⁻¹, respectively.

On to “N482A: exosite mutant of human m-NAD(P)-ME”, for which the Kd in series [1] (setting [3]) was found to be 290 ± 10 nM; in series [1] (setting [4]), 950 ± 30 nM; in series [1] (setting [5]) it was 1440 ± 40 nM; in series [1] (setting [6]), 350 ± 10 nM; in series [1] (setting [7]) it was 580 ± 30 nM; in series [1] (setting [8]) it was 970 ± 50 nM. For the same substance, the “h (Hill coefficient, malate cooperativity)” value in series [2] ((+) with 5 mM fumarate) is 1.04 ± 0.14; in series [2] ((−) without fumarate), 1.87 ± 0.70. Further, the “K0.5,malate” value is given as 1.02 ± 0.08 mM in series [2] ((+) with 5 mM fumarate) and 17.43 ± 5.10 mM in series [2] ((−) without fumarate). Besides, the figures for the Km in series [2] ((+) with 5 mM fumarate) and in series [2] ((−) without fumarate) were 20 ± 10 µM and 700 ± 170 µM, respectively. The kcat in series [2] ((+) with 5 mM fumarate) stood at 215.6 ± 0.1 s⁻¹; in series [2] ((−) without fumarate), 169.1 ± 0.6 s⁻¹.

Regarding “N482G: exosite mutant of human m-NAD(P)-ME”, the Kd in series [1] (setting [3]) came to 50 ± 10 nM; in series [1] (setting [4]), 180 ± 2 nM; in series [1] (setting [5]) it was 100 ± 3 nM; in series [1] (setting [6]), 60 ± 2 nM; in series [1] (setting [7]), 380 ± 2 nM; in series [1] (setting [8]), 40 ± 10 nM. Besides, the “h (Hill coefficient, malate cooperativity)” value is 1.00 ± 0.09 in series [2] ((+) with 5 mM fumarate) and 1.59 ± 0.14 in series [2] ((−) without fumarate). Moreover, the “K0.5,malate” value in series [2] ((+) with 5 mM fumarate) is recorded as 4.23 ± 0.47 mM; in series [2] ((−) without fumarate), 23.81 ± 2.70 mM. Also, the Km in series [2] ((+) with 5 mM fumarate) was 610 ± 40 µM; in series [2] ((−) without fumarate), 1500 ± 140 µM. Also, the kcat in series [2] ((+) with 5 mM fumarate) worked out at 309.7 ± 11.5 s⁻¹; in series [2] ((−) without fumarate), 263.2 ± 19.7 s⁻¹.

For orientation: Kd means a measure of binding affinity in units of concentration. Broadly, the Km is the substrate concentration at which the rate is half of its maximum. By kcat is commonly meant the maximal rate divided by the concentration of active sites.
